Measured values: PubChem BioAssay (NCI)
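Assay format: 96-well plates, 48-hour exposure. TGI is the concentration that stops growth completely.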

Columns and labels:
Test in all cases: DTP human tumour cell line panel, 48 h
HL-60(TB) leukemia = tested on: HL-60(TB) leukemia
K-562 leukemia = tested on: K-562 leukemia
EKVX NSCLC = tested on: EKVX NSCLC
UACC-257 melanoma = tested on: UACC-257 melanoma
NCI-H23 lung = tested on: NCI-H23 lung
SK-MEL-28 melanoma = tested on: SK-MEL-28 melanoma
ACHN renal = tested on: ACHN renal
XF 498 CNS = tested on: XF 498 CNS
UO-31 renal = tested on: UO-31 renal
LXFL 529 NSCLC = tested on: LXFL 529 NSCLC
DMS 273 small cell lung = tested on: DMS 273 small cell lung
A549 NSCLC = tested on: A549 NSCLC
OVCAR-3 ovarian = tested on: OVCAR-3 ovarian
OVCAR-4 ovarian = tested on: OVCAR-4 ovarian
SK-MEL-5 melanoma = tested on: SK-MEL-5 melanoma
LOX IMVI melanoma = tested on: LOX IMVI melanoma
MOLT-4 leukemia = tested on: MOLT-4 leukemia
RPMI-8226 leukemia = tested on: RPMI-8226 leukemia
SN12C renal = tested on: SN12C renal
OVCAR-8 ovarian = tested on: OVCAR-8 ovarian
HCC-2998 colon = tested on: HCC-2998 colon
SK-MEL-2 melanoma = tested on: SK-MEL-2 melanoma
M14 melanoma = tested on: M14 melanoma
SNB-19 CNS = tested on: SNB-19 CNS
SF-268 CNS = tested on: SF-268 CNS
SNB-75 CNS = tested on: SNB-75 CNS
CAKI-1 renal = tested on: CAKI-1 renal
NCI-H460 lung = tested on: NCI-H460 lung
A498 renal = tested on: A498 renal
OVCAR-5 ovarian = tested on: OVCAR-5 ovarian
KM20L2 colon = tested on: KM20L2 colon
IGROV1 ovarian = tested on: IGROV1 ovarian
COLO 205 colon = tested on: COLO 205 colon
SK-OV-3 ovarian = tested on: SK-OV-3 ovarian
UACC-62 melanoma = tested on: UACC-62 melanoma
RXF-631 renal = tested on: RXF-631 renal
CCRF-CEM leukemia = tested on: CCRF-CEM leukemia
KM12 colon = tested on: KM12 colon
SF-539 CNS = tested on: SF-539 CNS
HCT-15 colon = tested on: HCT-15 colon
HOP-62 NSCLC = tested on: HOP-62 NSCLC
SF-295 CNS = tested on: SF-295 CNS
NCI-H522 lung = tested on: NCI-H522 lung
DLD-1 colon = tested on: DLD-1 colon
MALME-3M melanoma = tested on: MALME-3M melanoma
786-0 renal = tested on: 786-0 renal
DMS 114 small cell lung = tested on: DMS 114 small cell lung
TK-10 renal = tested on: TK-10 renal
HT29 colon = tested on: HT29 colon
RXF 393 renal = tested on: RXF 393 renal
M19-MEL melanoma = tested on: M19-MEL melanoma
NCI-H226 lung = tested on: NCI-H226 lung
SW-620 colon = tested on: SW-620 colon
HOP-92 NSCLC = tested on: HOP-92 NSCLC
HCT-116 colon = tested on: HCT-116 colon
HOP-18 NSCLC = tested on: HOP-18 NSCLC
U251 CNS = tested on: U251 CNS
SNB-78 CNS = tested on: SNB-78 CNS
SR leukemia = tested on: SR leukemia

Measured: TGI

Cc1cccc(NC(=O)Cc2nc3ccccc3s2)c1C
not listed: HOP-92 NSCLC | HCT-116 colon | HOP-18 NSCLC | U251 CNS | SNB-78 CNS | SR leukemia
> 100 µM: all other assays above

COC(=O)C1CCC(N2C(=O)CCC2C(=O)OC)=N1 (configuration not stated)
not listed: SK-MEL-5 melanoma | SF-539 CNS | DMS 114 small cell lung | RXF 393 renal | SR leukemia
> 100 µM: all other assays above

COc1cc(C(=C2SCCS2)c2nccc3cc(OC)c(OC)cc23)c([N+](=O)[O-])cc1OC
94.6 µM: HL-60(TB) leukemia
not listed: OVCAR-4 ovarian | CAKI-1 renal | NCI-H460 lung | RXF-631 renal | HCT-15 colon
> 100 µM: all other assays above

CN(C)NC(=S)NC12CC3CC(CC(C3)C1)C2
not listed: RPMI-8226 leukemia | RXF-631 renal | SR leukemia
> 100 µM: all other assays above
